Measurements from the NIST ThermoML archive (doi:10.1016/j.jct.2012.04.017).
± gives the expanded uncertainty stated by the source.

Settings: 101.33 kPa, Liquid, Vibrating tube method

SMILES | mass density (298.15 K) [kg/m3] | mass density (308.15 K) [kg/m3] | mass density (318.15 K) [kg/m3] | mass density (328.15 K) [kg/m3] | mass density (338.15 K) [kg/m3] | mass density (348.15 K) [kg/m3]
CCCCCCn1cc[n+](C)c1.N#C[B-](C#N)(C#N)C#N [1-hexyl-3-methylimidazolium tetracyanoborate] | 983.03 ± 0.24 | – | – | – | – | –
CCCCCCCCCCCCCC[P+](CCCCCC)(CCCCCC)CCCCCC.N#C[B-](C#N)(C#N)C#N [trihexyltetradecylphosphonium tetracyanoborate] | 891.05 ± 0.23 | 884.97 ± 0.23 | 879.06 ± 0.23 | 873.16 ± 0.23 | 867.25 ± 0.24 | 861.36 ± 0.24
CCCCCCCCCCn1cc[n+](C)c1.N#C[B-](C#N)(C#N)C#N [1-decyl-3-methyl-1H-imidazolium tetracyanoborate] | 955.57 ± 0.12 | – | – | – | – | –
CCCCO [butan-1-ol] | 798.06 ± 0.15 | – | – | – | – | –
